Laboratory results reported in US8158657B2, “Heterocycles substituted pyridine derivatives and antifungal agent containing thereof” (Eisai R&D Management Co., Ltd., priority 2005, dated 2012).
In brackets after ≈: the same amount, converted by molar mass.

Columns and labels:
[1] = test system: A. fumigatus Tsukuba strain; assay: Anti-Aspergillus activity, MIC measurement; format: cell-based; conditions: RPMI1640, 42-48 hours at 35° C., visual inspection, read-out: Anti-Aspergillus Activity (minimum inhibitory concentration, MIC)
Description: (§1) For the C. albicans CAF2-1 strain, a fungal suspension from a standing culture for 48 hours at 30° C. in a Sabouraud dextrose liquid culture medium (SDB) was diluted with RPMI1640 medium to adjust a fungal suspension of 1.2×10^3 cells/mL. For the A. fumigatus Tsukuba strain, −80° C. stored strain was diluted with RPMI1640 medium to adjust to a fungal suspension of 4.5×10^3 cells/mL.
(§2) Using a U-bottomed 96 well plate, 8 samples/plate (A to H) of sample dilution solutions were prepared. On the 2nd to 12th rows were dispensed 10 μL of dimethyl sulfoxide solution. Weighted sample was dissolved in dimethyl sulfoxide to prepare a 2.5 mg/mL solution, 20 μL of this solution was added to the first row of the prepared plate, and 12 steps of two-fold step dilutions (10 μL of solution+10 μL of dimethyl sulfoxide solution) were performed on the plate. This sample dilution solution was dispensed in the amount of 1 μL to a flat-bottomed 96 well plate for MIC measurement to prepare a sample dilution plate.
(§3) The fungal suspension prepared in (1) was used in the amount of 99 μL/well to inoculate the flat-bottomed 96 well plate containing 1 μL/well of the test compound dilution prepared in (2), and a standing culture was carried out aerobically for 42-48 hours at 35° C.

[2] = test system: C. albicans CAF2-1 strain; assay: Anti-Candida activity, MIC measurement; format: cell-based; conditions: CAF21STRAIN, C. albicans CAF2-1, RPMI1640, 42-48 hours at 35° C., visual inspection, read-out: Anti-Candida Activity (minimum inhibitory concentration, MIC)
Description: as §1, §2, §3

## Nc1ccc(-c2cc(Cc3ccc(SCc4ccccc4)cc3)no2)c(N)n1 [Example 216, 3-(3-(4-Benzylsulfanyl-benzyl)-isoxazol-5-yl)-pyridin-2,6-diamine]
[1]
  MIC: 0.39 µg/mL (≈ 1 µM)
[2]
  MIC: 0.39 µg/mL (≈ 1 µM)

## Nc1ccc(-c2cc(Cc3ccc(Oc4cccc(F)c4)cc3)no2)c(N)n1 [Example 142, 3-(3-(4-(3-Fluoro-phenoxy)-benzyl)-isoxazol-5-yl)-pyridin-2,6-diamine]
[1]
  MIC: 0.39 µg/mL (≈ 1.04 µM)
[2]
  MIC: 0.39 µg/mL (≈ 1.04 µM)

## Nc1ccc(-c2cc(Cc3ccc(COc4ccccn4)nc3)no2)c(N)n1 [Example 154]
[1]
  MIC: 1.56 µg/mL (≈ 4.17 µM)
[2]
  MIC: 0.78 µg/mL (≈ 2.08 µM)

## COc1cccc(COc2ccc(Cc3cc(-c4ccc(N)nc4N)on3)cc2)c1 [Example 162, 3-(3-(4-(3-Methoxy-benzyloxy)-benzyl)-isoxazol-5-yl)-pyridin-2,6-diamine]
[1]
  MIC: 0.39 µg/mL (≈ 0.969 µM)
[2]
  MIC: 0.78 µg/mL (≈ 1.94 µM)

## Nc1ccc(-c2cc(Cc3cccc(OCc4ccccc4)c3)no2)c(N)n1 [Example 119, 3-(3-(3-Benzyloxy-benzyl)-isoxazol-5-yl)-pyridin-2,6-diamine]
[1]
  MIC: 0.78 µg/mL (≈ 2.09 µM)
[2]
  MIC: 0.39 µg/mL (≈ 1.05 µM)

## COCc1ccc(-c2cc(Cc3ccc(OCc4ccccc4)cc3)no2)c(N)n1 [Example 26, 3-(3-(4-Benzyloxy-benzyl)-isoxazol-5-yl)-6-methoxymethyl-pyridin-2-ylamine]
[1]
  MIC: 0.78 µg/mL (≈ 1.94 µM)
[2]
  MIC: 0.78 µg/mL (≈ 1.94 µM)

## CCOC(=O)CNc1ccc(-c2cc(Cc3ccc(OCc4ccccc4)nc3)no2)c(N)n1 [Example 227, (6-Amino-5-(3-(6-benzyloxy-pyridin-3-ylmethyl)-isoxazol-5-yl)-pyridin-2-ylamino)-acetic acid ethyl ester]
[1]
  MIC: 1.56 µg/mL (≈ 3.39 µM)
[2]
  MIC: 1.56 µg/mL (≈ 3.39 µM)

## Nc1ncccc1-c1cc(Cc2ccc(Nc3ccccc3)cc2)no1 [Example 69, 3-(3-(4-Phenylamino-benzyl)-isoxazol-5-yl)-pyridin-2-ylamine]
[1]
  MIC: 0.2 µg/mL (≈ 0.584 µM)
[2]
  MIC: 0.1 µg/mL (≈ 0.292 µM)

## Nc1ncccc1-c1cnn(Cc2ccc(COCC3CC3)cc2)c1 [Example 195, 3-(1-(4-Cyclopropylmethoxymethyl-benzyl)-1H-pyrazol-4-yl)-pyridin-2-ylamine]
[1]
  MIC: 0.78 µg/mL (≈ 2.33 µM)
[2]
  MIC: 0.39 µg/mL (≈ 1.17 µM)

## Nc1ncccc1-c1cc(Cc2ccc(COc3ccccn3)cc2F)no1 [Example 204, 3-(3-(2-Fluoro-4-(pyridin-2-yloxymethyl)-benzyl)-isoxazol-5-yl)-pyridin-2-ylamine]
[1]
  MIC: 0.39 µg/mL (≈ 1.04 µM)
[2]
  MIC: 0.2 µg/mL (≈ 0.531 µM)

## CCCCc1ccc(Cc2cc(-c3cccnc3N)on2)cc1 [Example 70, 3-(3-(4-Butyl-benzyl)-isoxazol-5-yl)-pyridin-2-ylamine]
[1]
  MIC: 0.39 µg/mL (≈ 1.27 µM)
[2]
  MIC: 1.56 µg/mL (≈ 5.07 µM)

## Nc1ncccc1-c1cc(Cc2ccc(Oc3cccc(F)c3)cc2)no1 [Example 81, 3-(3-(4-(3-Fluoro-phenoxy)-benzyl)-isoxazol-5-yl)-pyridin-2-ylamine]
[1]
  MIC: 0.39 µg/mL (≈ 1.08 µM)
[2]
  MIC: 0.2 µg/mL (≈ 0.553 µM)

## Nc1ccc(-c2cc(Cc3ccc(COc4ccc(F)cc4)nc3)no2)c(N)n1 [Example 132, 3-(3-(6-(4-Fluoro-phenoxymethyl)-pyridin-3-ylmethyl)-isoxazol-5-yl)pyridin-2,6-diamine]
[1]
  MIC: 3.13 µg/mL (≈ 8 µM)
[2]
  MIC: 3.13 µg/mL (≈ 8 µM)

## Cc1ccc(-c2cc(Cc3ccc(OCc4ccccc4)cc3)no2)c(N)n1 [Example 170, 3-(3-(4-benzyloxy-benzyl)-isoxazol-5-yl)-6-methyl-pyridin-2-ylamine]
[1]
  MIC: 0.39 µg/mL (≈ 1.05 µM)
[2]
  MIC: 0.78 µg/mL (≈ 2.1 µM)

## Nc1ncccc1-c1cc(Cc2ccc(CCC3CCCO3)cc2)no1 (stereo not shown) [Example 82, 3-(3-(4-(2-(Tetrahydrofuran-2-yl)-ethyl)-benzyl)-isoxazol-5-yl)-pyridin-2-ylamine]
[1]
  MIC: 0.39 µg/mL (≈ 1.12 µM)
[2]
  MIC: 0.2 µg/mL (≈ 0.572 µM)

## Nc1ncccc1-c1cc(Cc2ccc(Oc3ccc(F)cc3)nc2)no1 [Example 75, 3-(3-(6-(4-Fluoro-phenoxy)-pyridin-3-ylmethyl)-isoxazol-5-yl)-pyridin-2-ylamine]
[1]
  MIC: 0.2 µg/mL (≈ 0.552 µM)
[2]
  MIC: 0.78 µg/mL (≈ 2.15 µM)

## Nc1ncccc1-c1cnn(Cc2cccc(Oc3ccccc3)c2)c1 [Example 35, 3-(1-(3-Phenoxy-benzyl)-1H-pyrazol-4-yl)-pyridin-2-ylamine]
[1]
  MIC: 1.56 µg/mL (≈ 4.56 µM)
[2]
  MIC: 0.2 µg/mL (≈ 0.584 µM)

## Cc1nc(N)ccc1-c1cc(Cc2ccc(OCc3ccccc3)cc2)no1 [Example 188, 5-(3-(4-Benzyloxy-benzyl)-isoxazol-5-yl)-6-methyl-pyridin-2-ylamine]
[1]
  MIC: 0.78 µg/mL (≈ 2.1 µM)
[2]
  MIC: 1.56 µg/mL (≈ 4.2 µM)

## Nc1ccc(-c2cc(Cc3ccc(NCc4ccccc4)cc3)no2)c(N)n1 [Example 128, 3-(3-(4-Benzylamino-benzyl)-isoxazol-5-yl)-pyridin-2,6-diamine]
[1]
  MIC: 0.39 µg/mL (≈ 1.05 µM)
[2]
  MIC: 0.2 µg/mL (≈ 0.538 µM)

## Nc1ncccc1-c1cc(Cc2cccc(OCc3ccccn3)c2)no1 [Example 60, 3-(3-(3-(Pyridin-2-ylmethoxy)-benzyl)-isoxazol-5-yl)-pyridin-2-ylamine]
[1]
  MIC: 1.56 µg/mL (≈ 4.35 µM)
[2]
  MIC: 0.2 µg/mL (≈ 0.558 µM)

## Nc1ccc(-c2cc(Cc3ccc(OCc4ccc(F)cn4)cc3)no2)cn1 [Example 184, 5-(3-(4-(5-Fluoro-pyridin-2-ylmethoxy)-benzyl)-isoxazol-5-yl)-pyridin-2-ylamine]
[1]
  MIC: 0.39 µg/mL (≈ 1.04 µM)
[2]
  MIC: > 25 µg/mL

## Nc1ccc(-c2cc(Cc3ccc(OCc4cccc(F)c4)cc3)no2)c(N)n1 [Example 19, 3-(3-(4-(3-Fluoro-benzyloxy)-benzyl)-isoxazol-5-yl)-pyridin-2,6-diamine]
[1]
  MIC: 0.39 µg/mL (≈ 0.999 µM)
[2]
  MIC: 0.78 µg/mL (≈ 2 µM)

## Nc1ncccc1-c1cc(Cc2ccc(CSc3ccccc3)cc2)no1 [Example 206]
[1]
  MIC: 0.39 µg/mL (≈ 1.04 µM)
[2]
  MIC: 0.1 µg/mL (≈ 0.268 µM)

## COc1cccc(COc2ccc(Cc3cc(-c4cccnc4N)on3)cc2)c1 [Example 98, 3-(3-(4-(3-Methoxy-benzyloxy)-benzyl)-isoxazol-5-yl)-pyridin-2-ylamine]
[1]
  MIC: 0.39 µg/mL (≈ 1.01 µM)
[2]
  MIC: 0.39 µg/mL (≈ 1.01 µM)

## Nc1ccc(-c2cc(Cc3ccc(OCc4ccsc4)cc3)no2)c(N)n1 [Example 136, 3-(3-(4-(Thiophen-3-ylmethoxy)-benzyl)-isoxazol-5-yl)-pyridin-2,6-diamine]
[1]
  MIC: 0.2 µg/mL (≈ 0.528 µM)
[2]
  MIC: 0.2 µg/mL (≈ 0.528 µM)

## Cc1ccc(Oc2ccc(Cc3cc(-c4ccc(N)nc4N)on3)s2)cc1 [Example 106, 3-(3-(5-p-Tolyloxy-thiophen-2-ylmethyl)-isoxazol-5-yl)-pyridin-2,6-diamine]
[1]
  MIC: 0.2 µg/mL (≈ 0.528 µM)
[2]
  MIC: 0.78 µg/mL (≈ 2.06 µM)

## Nc1ncc(F)cc1-c1cc(Cc2ccc(OCc3cc(Cl)ccn3)cc2)no1 [Example 175, 3-(3-(4-(4-Chloro-pyridin-2-ylmethoxy)-benzyl)-isoxazol-5-yl)-5-fluoro-pyridin-2-ylamine]
[1]
  MIC: 1.56 µg/mL (≈ 3.8 µM)
[2]
  MIC: 0.78 µg/mL (≈ 1.9 µM)

## Cc1ccc(Cc2ccc(Cc3cc(-c4ccc(N)nc4)on3)cc2)o1 [Example 178, 5-(3-(4-(5-Methyl-furan-2-ylmethyl)-benzyl)-isoxazol-5-yl)-pyridin-2-ylamine]
[1]
  MIC: 0.2 µg/mL (≈ 0.579 µM)
[2]
  MIC: 0.39 µg/mL (≈ 1.13 µM)

## Nc1ncccc1-c1cc(Cc2ccc(OCc3ccsc3)cc2)no1 [Example 77, 3-(3-(4-(Thiophen-3-ylmethoxy)-benzyl)-isoxazol-5-yl)-pyridin-2-ylamine]
[1]
  MIC: 0.39 µg/mL (≈ 1.07 µM)
[2]
  MIC: 0.2 µg/mL (≈ 0.55 µM)

## Cc1cc(COc2ccc(Cc3cc(-c4cccnc4N)on3)cc2)ccn1 [Example 47, 3-(3-(4-(2-Methyl-pyridin-4-ylmethoxy)-benzyl)-isoxazol-5-yl)-pyridin-2-ylamine]
[1]
  MIC: 0.39 µg/mL (≈ 1.05 µM)
[2]
  MIC: 0.2 µg/mL (≈ 0.537 µM)

## Nc1ccc(-c2cc(Cc3cccc(-c4ccccc4)c3)no2)c(N)n1 [Example 147, 3-(3-Biphenyl-3-ylmethyl-isoxazol-5-yl)-pyridin-2,6-diamine]
[1]
  MIC: 1.56 µg/mL (≈ 4.56 µM)
[2]
  MIC: 1.56 µg/mL (≈ 4.56 µM)

## Nc1ccc(-c2cc(Cc3ccc(Sc4ccccc4)nc3)no2)c(N)n1 [Example 161, 3-(3-(6-Phenylsulfanyl-pyridin-3-ylmethyl)-isoxazol-5-yl)-pyridin-2,6-diamine]
[1]
  MIC: 0.39 µg/mL (≈ 1.04 µM)
[2]
  MIC: 0.39 µg/mL (≈ 1.04 µM)

## Nc1ncccc1-c1cc(Cc2ccc(SCc3ccccc3)cc2)no1 [Example 205, 3-(3-(4-Benzylsulfanyl-benzyl)-isoxazol-5-yl)-pyridin-2-ylamine]
[1]
  MIC: 0.78 µg/mL (≈ 2.09 µM)
[2]
  MIC: 0.39 µg/mL (≈ 1.04 µM)

## Nc1ccc(-c2cc(Cc3ccc(Oc4ccc(F)cc4)cc3)no2)c(N)n1 [Example 141, 3-(3-(4-(4-Fluoro-phenoxy)-benzyl)-isoxazol-5-yl)-pyridin-2,6-diamine]
[1]
  MIC: 0.2 µg/mL (≈ 0.531 µM)
[2]
  MIC: 0.39 µg/mL (≈ 1.04 µM)

## Nc1ccc(-c2cc(Cc3ccc(OCc4ccccn4)c(F)c3)no2)c(N)n1 [Example 150, 3-(3-(3-Fluoro-4-(pyridin-2-ylmethoxy)-benzyl)-isoxazol-5-yl)-pyridin-2,6-diamine]
[1]
  MIC: 0.78 µg/mL (≈ 1.99 µM)
[2]
  MIC: 0.39 µg/mL (≈ 0.996 µM)

## Nc1ncccc1-c1cc(Cc2cccc(-c3ccccn3)c2)no1 [Example 84, 3-(3-(3-Pyridin-2-yl-benzyl)-isoxazol-5-yl)-pyridin-2-ylamine]
[1]
  MIC: > 25 µg/mL
[2]
  MIC: 3.13 µg/mL (≈ 9.53 µM)

## Nc1ccc(-c2cc(Cc3ccc(Oc4ccccc4F)cc3)no2)c(N)n1 [Example 144, 3-(3-(4-(2-Fluoro-phenoxy)-benzyl)-isoxazol-5-yl)-pyridin-2,6-diamine]
[1]
  MIC: 0.2 µg/mL (≈ 0.531 µM)
[2]
  MIC: 0.39 µg/mL (≈ 1.04 µM)

## Nc1ncccc1-c1cc(Cc2ccc(OCC3CC3)cc2)no1 [Example 8, 3-(3-(4-Cyclopropylmethoxy-benzyl)-isoxazol-5-yl)-pyridin-2-ylamine]
[1]
  MIC: 0.78 µg/mL (≈ 2.43 µM)
[2]
  MIC: 1.56 µg/mL (≈ 4.85 µM)
